US5726153A, “Synthetic peptides for arterial imaging” (New England Deaconess Hospital Corporation, priority 1995, dated 1998)
Entries after “also recorded” stand apart in the source; their conditions may differ. Ends that are not written are not given here.

Key:
anti-SP-4 antiserum = assay: ELISA cross-reactivity: peptide-coated plates treated with anti-SP-4 antiserum; type: binding, rabbit; details: FIG. 4
Procedure: To produce anti-synthetic peptide antisera, purified synthetic peptide was dissolved in PBS, pH 7.4 at a concentration of 1 mg/ml. The peptide solution was mixed with an equal volume of complete Freund's adjuvant and vortexed thoroughly until a thick emulsion was produced. New Zealand White rabbits (Millbrook Farms, Amherst, Mass.) were injected with a total of 0.5 mg synthetic peptide administered subcutaneously in the four dorsal quadrants. The rabbits were given a boost (injected at the same sites) with 0.5 mg peptide emulsified in incomplete Freund's adjuvant 2-3 weeks later. Eight to ten days after the first boost, the animals were given a second, identical boost and were bled of 30 ml 8 to 10 days later.
To test for immunological cross-reactivity microtiter plates (Immulon II Dynatech Labs, Chantilly, Va.) were coated with the purified synthetic peptide or LDL by an overnight incubation at 4° C. with 100 ng peptide per well in 50 mM carbonate, pH 9.6, and blocked for nonspecific binding with an additional overnight incubation with phosphate-buffered saline, pH 7.4 (PBS), 1% bovine serum albumin (BSA). Control wells were coated with BSA alone. After washing twice with PBS, the wells were filled with serial dilutions (1:10 to 1:100,000 made in PBS, 3% BSA) of a rabbit polyclonal antibody generated against the synthetic peptide(s) and incubated for 45 minutes at room temperature. Following thorough washing (3× with PBS, 0.1% BSA), the wells were filled with a 1:2000 dilution of goat anti-rabbit IgG-horseradish peroxidate conjugate (Atlantic Antibodies, Scarborough, Me.). After a final wash, the wells were filled with 3,3'-5,5'- tetramethybenzidine (TMB) microwell peroxidase substrate (Kirkegaard and Perry Labs, Gaithersburg, Md.) and read at 650 nm every two minutes on an ELISA-5 automated plate reader (Physica, New York, N.Y.). Results (see, e.g., FIGS. 4 and 5) are expressed as the initial velocity of substrate conversion (change in OD650 /hr), which is determined by a linear regression of 15 data points per well. Each data point represents the average of three measured data points from the same plate, run at the same time.

[1] = test system: balloon de-endothelialized healing abdominal aorta; assay: Focal accumulation at vascular injury, onlay autoradiography of excised aorta, balloon de-endothelialized rabbit; type: in vivo, New Zealand white rabbits
Procedure: The peptides described herein were assayed for their ability to target sites of vascular injury as follows. Male New Zealand white rabbits (2 to 3 kg each) were obtained from ARI Breeding Labs, West Bridgewater, Mass. To induce vascular injury, their abdominal aortas were denuded of endothelium by a modification of the Baumgartner technique (Fischman et al., Arteriosclerosis 7:361, 1987). Briefly, after each animal was anesthetized with ketamine and ether or, alternatively, with xylazine (20 mg/ml) and Ketalar (50 mg/ml), the left femoral artery was isolated; a 4F Fogarty embolectomy catheter (Model 12-040-4F, Edwards Laboratories Incorporated, Santa Anna, Calif.) was introduced through an arterotomy in the femoral artery and was advanced under fluoroscopic visualization to the level of the diaphragm. The catheter was inflated to a pressure of about 3 psi above the balloon inflation pressure with radiographic contrast medium (Conray, Mallinkrodt, St. Louis, Mo.). Three passes were made through the abdominal aorta with the inflated catheter to remove the aortic endothelium before removal of the catheter, ligation of the femoral artery, and closure of the wound. The animals were allowed to heal for a period of 4 to 5 weeks before injection of the labelled synthetic peptides.
(§1) Each labelled synthetic peptide preparation (containing, for example, 150 to 400 or more μCi of ^125 I-labelled peptide) in column elution buffer was injected into the marginal ear vein of the ballooned and healing New Zealand white rabbits or WHHL rabbits. Serial blood samples were obtained from the opposite ear during the ensuing 0-24 hours and were analyzed for radioactivity. The labelled peptide concentrations in the blood samples that were withdrawn over the first 10 minutes after injection were extrapolated to zero time to determine the time zero radioactivity in the calculation of average plasma radioactivity. […] Peptides SP15a, SP17, SP19a, SP21a, SP28, SP34a, and SP30 were cleared rapidly from the plasma with half-lives of about one minute or less; after one hour, the plasma levels were less than 10% of the injected dose and fell by an additional 1% over the next three hours. Peptides SP15a, SP17, SP21a, SP28, SP34a, and SP30 leveled off to a plasma level of 3-6%; peptide SP19a cleared more quickly and leveled off to a concentration of 0.3% (at four hours).
One to twenty-four hours after injection of the labelled synthetic peptide preparations, each animal was injected intravenously with 4 ml of a 0.5% solution of Evans blue dye (Allied Chemical Company, National Aniline Division, NY, N.Y.) which stains areas of de-endothelialized aorta blue. After 30 minutes, the animal was sacrificed by a lethal injection of pentobarbital. After sacrifice, the aorta was removed completely, washed in saline, and fixed in 10% trichloroacetic acid.
The washed and fixed aortas from the animals that had been injected with radiolabelled synthetic peptide were opened along the ventral surface. These segments were then pinned out, fixed for 2 hours in 10% trichloroacetic acid, and photographed. The fixed, opened vessels were then covered with a single layer of plastic (Saran) wrap, placed on high speed x-ray film (Kodak Orthofilm OH-1), and stored for 3 days to 4 weeks in a Kodak "X-Omatic cassette" (24×30 cm) at -70° C. before development in a 90 second X-OMAT.

[2] = test system: atherosclerotic lesions of the aorta; assay: Focal accumulation at atherosclerotic lesions, onlay autoradiography of excised aorta, WHHL rabbit; type: in vivo, Watanabe Heritable Hyperlipemic (WHHL) rabbits; details: FIG. 7
Procedure: Watanabe Heritable Hyperlipemic (WHHL) rabbits were also used as animal models. They were obtained from the WHHL Rabbit Program of the National Heart Lung and Blood Institute (Bethesda, Md.) at about 3 months of age and weighing about 1.5 kg. The animals were raised until they were 3-4 kg in weight.
as §1, with “hours). […]” for “hours).”

[3] = Plasma decay of 125I-labelled synthetic peptide after intravenous injection; type: in vivo, rabbit; details: for plasma level leveled off to / plasma level after one hour: 125I-labelled peptide, intravenous, rabbit; for additional fall of plasma level over the next three hours: from one to four hours after injection
Procedure: as §1

For “NH2 -Tyr-Arg-Ala-Leu-Val-Asp-Thr-Leu-Lys-Phe-Val-Thr-Gln-Ala-Glu-Gly-Ala-Lys-CONH2 (H-YRALVDTLKFVTQAEGAK-NH2) [SP-4]”, the “binding of anti-SP-4 antiserum to the peptide” value (“binding of anti-SP-4 antiserum” for short) (anti-SP-4 antiserum) was “bind”, the “localization of 125I-labelled peptide on onlay autoradiograph of the aorta” value (“localization of 125I-labelled peptide” for short) [1] was “clear-cut localization of the synthetic peptide on the image at the healing (re-endothelizing) edge of the aortic lesions; also recorded: labelled healing lesions” and the “localization of 125I-labelled peptide” value [2] was “clearly correspond to the radioactively-labelled lesions; also recorded: localizes at atherosclerotic lesions”.

For “H2 N-Tyr-Lys-Leu-Ala-Leu-Glu-Ala-Ala-Arg-Leu-Leu-Ala-Asp-Ala-Glu-Gly-Ala-Lys- CONH2 (H-YKLALEAARLLADAEGAK-NH2) [SP-6, conservatively substituted SP-4]”, the “binding of anti-SP-4 antiserum” value (anti-SP-4 antiserum) was “bind”.

In the case of “H2 N-Tyr-Lys-Leu-Ala-Leu-Glu-Ala-Ala-Arg-Leu-Leu-Ala-Asn-Ala-Glu-Gly-Ala-Lys- CONH2 (H-YKLALEAARLLANAEGAK-NH2) [SP-8, conservatively substituted SP-4]”, the “binding of anti-SP-4 antiserum” value (anti-SP-4 antiserum) was “bind”.

With “YVPGVGVPGVGVPGVGVPGVG-NH2 [SP-30, H2 N-Tyr-Val-Pro-Gly-Val-Gly-Val-Pro-Gly-Val-Gly-Val-Pro-Gly-Val-Gly-Val-pro- Gly-Val-Gly-CONH2]” the “plasma level leveled off to” value [3] was 3-6%, the “plasma level after one hour” value [3] was “less than 10 % of the injected dose” and the “additional fall of plasma level over the next three hours” value [3] was 1%. For the same substance, the “localization of 125I-labelled peptide” value [1] was “accumulated focally at the leading edges of regenerating endothelial tissue”.

For Ac-YVLDEFREKLNEELEALKQK-NH2 [SP-34a], the “plasma level leveled off to” value [3] was 3-6%, the “plasma level after one hour” value [3] was “less than 10 % of the injected dose” and the “additional fall of plasma level over the next three hours” value [3] was 1%. The “localization of 125I-labelled peptide” value [1] was “accumulated focally at the leading edges of regenerating endothelial tissue”.

For “YAALDLNAVANKIADFEL-NH2 [SP-17, H2 N-Tyr-Ala-Ala-Leu-Asp-Leu-Asn-Ala-Val-Ala-Asn-Lys-Ile-Ala-Asp-Phe-Glu-Leu- CONH2]”, the “plasma level leveled off to” value [3] was 3-6%, the “plasma level after one hour” value [3] was “less than 10 % of the injected dose” and the “additional fall of plasma level over the next three hours” value [3] was 1%. For the same substance, the “localization of 125I-labelled peptide” value [1] was “accumulated focally at the leading edges of regenerating endothelial tissue”.

For “YVGVAPGVGVAPGVGVAPG [SP-28, H2 N-Tyr-Val-Gly-Val-Ala-Pro-Gly-Val-Gly-Val-Ala-Pro-Gly-Val-Gly-Val-Ala-Pro- Gly-OH]”, the “plasma level leveled off to” value [3] was 3-6%, the “plasma level after one hour” value [3] was “less than 10 % of the injected dose” and the “additional fall of plasma level over the next three hours” value [3] was 1%. For the same substance, the “localization of 125I-labelled peptide” value [1] was “accumulated focally at the leading edges of regenerating endothelial tissue”.

In the case of “Ac-YRALVDTLKFVTEQAKGA-NH2 [SP-19a, CH3 CONH-Tyr-Arg-Ala-Leu-Val-Asp-Thr-Leu-Lys-Phe-Val-Thr-Glu-Gln-Ala-Lys-Gly-Ala-CONH2]”, the “plasma level after one hour” value [3] was “less than 10 % of the injected dose”, the “plasma concentration leveled off to” value ([3]; at four hours) was 0.3% and the “additional fall of plasma level over the next three hours” value [3] was 1%. The “localization of 125I-labelled peptide” value [1] was “accumulated focally at the leading edges of regenerating endothelial tissue”.

With “CH3 CONH-Tyr-Arg-Ala-Leu-Val-Asp-Thr-Leu-Lys-CONH2 (Ac-YRALVDTLK-NH2) [SP-14A, modified counterpart of SP-14]” the “binding of anti-SP-4 antiserum” value (anti-SP-4 antiserum) was “bind”.

In the case of “CH3 CONH-Tyr-Lys-Leu-Ala-Leu-Glu-Ala-Ala-Arg-Leu-Leu-Ala-Asp-Ala-Glu-Gly-Ala-Lys-CONH2 (Ac-YKLALEAARLLADAEGAK-NH2) [SP-6A, modified counterpart of SP-6]”, the “binding of anti-SP-4 antiserum” value (anti-SP-4 antiserum) was “bind”.

For “Ac-YRALVDTEFKVKQEAGAK-NH2 [SP-21a, CH3 CONH-Tyr-Arg-Ala-Leu-Val-Asp-Thr-Glu-Phe-Lys-Val-Lys-Gln-Glu-Ala-Gly-Ala-Lys-CONH2]”, the “plasma level leveled off to” value [3] was 3-6%, the “plasma level after one hour” value [3] was “less than 10 % of the injected dose” and the “additional fall of plasma level over the next three hours” value [3] was 1%. For the same substance, the “localization of 125I-labelled peptide” value [1] was “accumulated focally at the leading edges of regenerating endothelial tissue”.

With “Ac-YAKFRETLEDTRDRMY-NH2 [SP-15a, CH3 CONH-Tyr-Ala-Lys-Phe-Arg-Glu-Thr-Leu-Glu-Asp-Thr-Arg-Asp-Arg-Met-Tyr-CONH2]” the “plasma level leveled off to” value [3] was 3-6%, the “plasma level after one hour” value [3] was “less than 10 % of the injected dose” and the “additional fall of plasma level over the next three hours” value [3] was 1%. For the same substance, the “localization of 125I-labelled peptide” value [1] was “accumulated focally at the leading edges of regenerating endothelial tissue”.

With “CH3 CONH-Tyr-Arg-Ala-Leu-Val-Asp-Tyr-Leu-Lys-Phe-Val-Thr-Gln-Leu-CONH2 (Ac-YRALVDYLKFVTQL-NH2) [SP-12A, modified counterpart of SP-12]” the “binding of anti-SP-4 antiserum” value (anti-SP-4 antiserum) was “bind”.

In the case of “CH3 CONH-Tyr-Arg-Ala-Leu-Val-Asp-Thr-Leu-Lys-Phe-Val-Thr-Gln-Ala-Glu-Gly-Ala-Lys-CONH2 (Ac-YRALVDTLKFVTQAEGAK-NH2) [SP-4A, modified counterpart of SP-4]”, the “binding of anti-SP-4 antiserum” value (anti-SP-4 antiserum) was “bind”.

With “CH3 CONH-Tyr-Lys-Leu-Ala-Leu-Glu-Ala-Ala-Arg-Leu-Leu-Ala-Asn-Ala-Glu-Gly-Ala-Lys-CONH2 (Ac-YKLALEAARLLANAEGAK-NH2) [SP-8A, modified counterpart of SP-8]” the “binding of anti-SP-4 antiserum” value (anti-SP-4 antiserum) was “bind”.
